Legend:
[1] = test system: AH1-specific CD8^+ T cells; experiment: AH1 tetramer staining of CD8+ T cells after immunization; type: in vivo, BALB/c mice; settings: CPQ with 1 μg total peptide, days 0 and 7, blood day 14
Method: In vivo immunization: Murine studies were performed according to protocols approved by the University at Buffalo IACUC. 5-6 week-old female BALB/c mice (Charles River Laboratories, strain BALB/cAnNCrl) were immunized intramuscularly on the right hind leg. BALB/cJ mice (Jackson Laboratories) were used in this study only for DNA sequencing where indicated.
For tetramer staining, immunized mice were analyzed for the percentages of tumor Ag-specific CD8^+ T cells by a tetramer staining assay. H-2L^d-restricted AH1 ([…]) peptide was complexed with MHC-I (H-2L^d) and conjugated with PE (the NIH Tetramer core facility). 60 μL of blood incubated with the AH1 tetramer for 1 hr at 4° C. (100× dilution), then incubated with CD8a, MHC-II (IA/IE), B220, CD4, CD44 and CD62L antibodies for 30 min at 4° C. (1000× dilution). Red blood cells were lysed by cell lysis buffer for 5 mins then cells were centrifuged at 500×g for another 5 min. The cell pellets were washed twice for flow cytometry analysis. For tetramer staining of splenocytes, 1×10^6 cells were incubated with tetramer and antibodies in the same condition as blood, and then washed twice for flow cytometry analysis. Flow cytometry studies were carried out using a BD LSRFortessam X-20 cytometer. Flowjo (version 10) software was used for data analysis.

TC-1 cells = experiment: Therapeutic vaccine tumor model, subcutaneous TC-1; type: in vivo, C57BL/6 mice; settings: E7HHH49-57 admixed with poly(I:C), up to 20 μg peptide
Text: (§1) FIG. 23. Immunization with E7HHH49-57-admixed with CPQ inhibits tumor growth in a therapeutic setting more potently than poly(I:C). C57BL/6 mice were inoculated with TC-1 cells subcutaneously on day 0; then different vaccines were given 2 days post-tumor inoculation. Blood was collected 18 days post-tumor inoculation for CD8^+ T cell analyses. (A) Tumor growth of mice that vaccinated with indicated vaccine. (B) Tumor sizes of mice on day 19. (C) Survival of mice. (D) Percentage of CD8^+E749-57 tet^+ cells in the blood. Error bars show mean+/−std. dev. for n=5 per group. * p<0.05, ** p<0.01 and **** p<0.0001, analyzed by (C) long rank test or (D) one-way ANOVA with Bonferroni multiple comparisons post-test.
(§2) Since CPQ/E7HHH49-57 was effective in a prophylactic setting, we next assessed the vaccine on established TC-1 tumors, which is also the setting in which most cancer vaccines would be initially tested clinically. Poly(I:C) was used as an adjuvant comparator. For poly(I:C), the synthetic short peptide dose ranged from […] per mouse while the poly(I:C) dose remained fixed at […]. For the CPQ liposome adjuvant, the peptide dosing varied from […] per mouse. Given that the ratio of liposomes to peptide was fixed, this corresponds to a 3D6A-PHAD dose and QS-21 dose ranging from 1.6 to 0.16 μg, along with a CoPoP dose ranging from 4 to 0.4 μg. […]

[2] = test system: E749-57 specific CD8^+ T cells; experiment: E749-57 tetramer staining of CD8+ T cells in blood; type: in vivo, C57BL/6 mice; settings: E7HHH49-57 admixed with poly(I:C), 19 days post-tumor inoculation
Text: as §1, with “Blood was collected 18 days post-tumor inoculation for CD8^+ T cell analyses.” left out
as §2

Substance	CD8^+ T cells that were Ag specific (AH1 tet^+) [1]	Time within which tumors of all mice reached the 1 cm endpoint (TC-1 cells)	Ag-specific CD8^+ T cells in the blood [2]
SPSYVYHQF [AH1]	did not elicit detectable amount		
Polyinosinic:polycytidylic acid [poly(I:C)]		≤ 60 days	almost no

From patent US20240091328A1, “FORMULATIONS AND METHODS FOR MHC-I RESTRICTED EPITOPE IMMUNIZATION” (The Research Foundation for The State University of New York, priority 2021, published 2024)
